Reference: patent US12077503B2, “Substituted cyclic amides and their use as herbicides” (FMC CORPORATION, priority 2015, dated 2024)

Experiments:
Type in all cases: in vivo
[1] = test system: crabgrass, large (Digitaria sanguinalis); experiment: Test A preemergence
Summary of the method: (§1)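 Preemergence directed soil spray on seeded pots, or postemergence application to plants 2–10 cm, one- to two-leaf. Solvent mixture non-phytotoxic, with surfactant. Scored ~10 d later, visually, 0–100 vs untreated.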

[2] = test system: giant foxtail (Setaria faberii); experiment: Test A preemergence
Summary of the method: as §1

[3] = test system: velvetleaf (Abutilon theophrasti); experiment: Test A preemergence
Summary of the method: as §1

corn (Zea mays) [4] = experiment: Test A preemergence
Summary of the method: as §1

[5] = test system: wheat (Triticum aestivum); experiment: Test A preemergence
Summary of the method: as §1

[6] = test system: pigweed (Amaranthus retroflexus); experiment: Test A preemergence
[7] = test system: barnyardgrass (Echinochloa crus-galli); experiment: Test A preemergence
Summary of the method: as §1

[8] = test system: crabgrass, large (Digitaria sanguinalis); experiment: Test A postemergence
Summary of the method: as §1

[9] = test system: giant foxtail (Setaria faberii); experiment: Test A postemergence
Summary of the method: as §1

[10] = test system: velvetleaf (Abutilon theophrasti); experiment: Test A postemergence
Summary of the method: as §1

corn (Zea mays) [11] = experiment: Test A postemergence
Summary of the method: as §1

[12] = test system: wheat (Triticum aestivum); experiment: Test A postemergence
Summary of the method: as §1

[13] = test system: pigweed (Amaranthus retroflexus); experiment: Test A postemergence
Summary of the method: as §1

[14] = test system: morningglory (Ipomoea spp.); experiment: Test A postemergence
Summary of the method: as §1

[15] = test system: barnyardgrass (Echinochloa crus-galli); experiment: Test A postemergence
Summary of the method: as §1

rice (Oryza sativa) = experiment: Test C flooded paddy test; details: Flood, 0 is no effect, 100 is complete control
Summary of the method: (§2)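 Test compounds were dosed straight into the flood water of pots holding 2-leaf-stage plants, with water kept 3 cm above the soil. Greenhouse plants were scored visually against controls after 13 to 15 d, from 0 (no effect) to 100 (complete control).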

[16] = test system: sedge, umbrella (small-flower umbrella sedge, Cyperus difformis); experiment: Test C flooded paddy test; details: Flood, 0 is no effect, 100 is complete control
Summary of the method: as §2

[17] = test system: ducksalad (Heteranthera limosa); experiment: Test C flooded paddy test; details: Flood, 0 is no effect, 100 is complete control
Summary of the method: as §2

[18] = test system: barnyardgrass (Echinochloa crus-galli); experiment: Test C flooded paddy test; details: Flood, 0 is no effect, 100 is complete control
Summary of the method: as §2

[19] = 125 g ai/ha, preemergence, 0 to 100 scale (0 no effect, 100 complete control)
[20] = Preemergence, 500 g ai/ha, 0 is no effect, 100 is complete control
[21] = 500 g ai/ha, postemergence, 0 to 100 scale, 0 no effect, 100 complete control
[22] = Postemergence, 125 g ai/ha, visual injury, 0 to 100 scale (0 no effect, 100 complete control), approx. 10 d

## O=C1NCC(c2cccnc2)C1C(=O)Nc1ccccc1F (racemic) [Compound 363]
[1]; [19]
  Plant response rating, Crabgrass, Large: 0
[1]; [20]
  Crabgrass, Large plant response rating (0 to 100 scale): 0
[2]; [19]
  Plant response rating, Foxtail, Giant: 0
[2]; [20]
  Foxtail, Giant plant response rating (0 to 100 scale): 0
[3]; [19]
  Plant response rating, Velvetleaf: 0
[3]; [20]
  Velvetleaf plant response rating (0 to 100 scale): 0
Corn (Zea mays) [4]; [19]
  Plant response rating, Corn: 0
Corn (Zea mays) [4]; [20]
  Corn plant response rating (0 to 100 scale): 0
[5]; [19]
  Plant response rating, Wheat: 0
[5]; [20]
  Wheat plant response rating (0 to 100 scale): 0
[6]; [19]
  Plant response rating, Pigweed: 0
[6]; [20]
  Pigweed plant response rating (0 to 100 scale): 0
[7]; [19]
  Plant response rating, Barnyardgrass: 0
[7]; [20]
  Barnyardgrass plant response rating (0 to 100 scale): 0
[8]; [21]
  Plant response rating, Crabgrass, Large: 0
[8]; [22]
  Plant response rating, Crabgrass, Large: 0
[9]; [21]
  Plant response rating, Foxtail, Giant: 0
[9]; [22]
  Plant response rating, Foxtail, Giant: 0
[10]; [21]
  Plant response rating, Velvetleaf: 10
[10]; [22]
  Plant response rating, Velvetleaf: 0
Corn (Zea mays) [11]; [21]
  Plant response rating, Corn: 0
Corn (Zea mays) [11]; [22]
  Plant response rating, Corn: 0
[12]; [21]
  Plant response rating, Wheat: 0
[12]; [22]
  Plant response rating, Wheat: 0
[13]; [21]
  Plant response rating, Pigweed: 0
[13]; [22]
  Plant response rating, Pigweed: 0
[14]; [21]
  Plant response rating, Morningglory: 0
[14]; [22]
  Plant response rating, Morningglory: 0
[15]; [21]
  Plant response rating, Barnyardgrass: 0
[15]; [22]
  Plant response rating, Barnyardgrass: 0
Rice (Oryza sativa); 31 g ai/ha
  Plant response rating (scale of 0 to 100), Rice: 0
Rice (Oryza sativa); 62 g ai/ha
  Plant response rating (scale of 0 to 100), Rice: 0
Rice (Oryza sativa); 125 g ai/ha
  Plant response rating (scale of 0 to 100), Rice: 0
Rice (Oryza sativa); 250 g ai/ha
  Plant response rating (scale of 0 to 100), Rice: 0
[16]; 31 g ai/ha
  Plant response rating (scale of 0 to 100), Sedge, Umbrella: 0
[16]; 62 g ai/ha
  Plant response rating (scale of 0 to 100), Sedge, Umbrella: 0
[16]; 125 g ai/ha
  Plant response rating (scale of 0 to 100), Sedge, Umbrella: 0
[16]; 250 g ai/ha
  Plant response rating (scale of 0 to 100), Sedge, Umbrella: 0
[17]; 31 g ai/ha
  Plant response rating (scale of 0 to 100), Ducksalad: 0
[17]; 62 g ai/ha
  Plant response rating (scale of 0 to 100), Ducksalad: 0
[17]; 125 g ai/ha
  Plant response rating (scale of 0 to 100), Ducksalad: 0
[17]; 250 g ai/ha
  Plant response rating (scale of 0 to 100), Ducksalad: 0
[18]; 31 g ai/ha
  Plant response rating (scale of 0 to 100), Barnyardgrass: 0
[18]; 62 g ai/ha
  Plant response rating (scale of 0 to 100), Barnyardgrass: 0
[18]; 125 g ai/ha
  Plant response rating (scale of 0 to 100), Barnyardgrass: 0
[18]; 250 g ai/ha
  Plant response rating (scale of 0 to 100), Barnyardgrass: 0
